In publication PMC11862990, “Utility of 6-aza-2-thiothymine in the synthesis of novel [1,2,4]triazolo[4,3-b][1,2,4]triazin-7-one derivatives: synthesis, structure elucidation, molecular docking and in vitro anti-lung cancer activity” (RSC Advances, 2025):
Where “and” joins values, the source holds several entries; their conditions need not be identical. Equal values may be shown once.

Test system: lung cancer cell lines (A549)
Assay: DNA fragmentation assay (diphenylamine reaction)
Assay type: cell-based, human
Settings: for DNA fragmentation Change: change vs negative control; for DNA fragmentation% (M ± SEM): negative control 12.54 ± 0.45
Protocol: The DNA fragmentation assay in lung cancer cell lines was performed in accordance with the protocol established by Yawata (1998)[34] with some modifications. […] The low-molecular-weight genomic DNA was extracted as described in Yawata (1998).[34] Approximately 1 × 10^6 cells of each treatment were plated. All the cells (including floating cells) were harvested and washed with Dulbecco's phosphate buffered saline. The cancer cells were lysed with the lysis buffer containing 10 mM Tris (pH 7.4), 150 mM NaCl, 5 mM ethylenediaminetetraacetic acid (EDTA), and 0.5% Triton X-100 for 30 min on ice. Lysates were vortexed and cleared by centrifugation at 10 000 g for 20 min. Fragmented DNA in the supernatant was extracted with an equal volume of a neutral phenol : chloroform : isoamyl alcohol mixture (25 : 24 : 1) and analyzed electrophoretically on 2% agarose gels containing 0.1 μg ml^−1 ethidium bromide.
The lung cancer cell lines (A549) were used to determine the quantitative profile of the DNA fragmentation. […] The cancer cells were lysed in 0.5 ml of lysis buffer containing 10 mM Tris–HCl (pH 8), 1 mM EDTA, and 0.2% Triton X-100 and centrifuged at 10 000 rpm (Eppendorf) for 20 min at 4 °C. The pellets were re-suspended in 0.5 ml of lysis buffer. To the pellets (P) and the supernatants (S), 0.5 ml of 25% tri-chloroacetic acid (TCA) was added and incubated at 4 °C for 24 h. The cells were then centrifuged for 20 min at 10 000 rpm (Eppendorf) at 4 °C and the pellets were suspended in […] of 5% TCA, followed by incubation at 83 °C for 20 min. Subsequently, to each cell sample, […] of diphenylamine (DPA) solution [150 mg DPA in 10 ml glacial acetic acid, […] of sulfuric acid and […] acetaldehyde (16 mg ml^−1)] was added and incubated at room temperature for 24 h (Gibb et al.,[35] 1997). The proportion of the fragmented DNA was calculated from the absorbance values at 600 nm wavelength using the formula:% fragmented DNA = [OD(S)/[OD(S) + OD(P)]] × 100(OD: optical density, S: supernatants, P: pellets).

Compound	DNA fragmentation Inhibition% [%]	DNA fragmentation Change	DNA fragmentation% (M ± SEM)
Cc1nn2c(C)nn(-c3ccc([N+](=O)[O-])cc3)c2nc1=O [Compound 7a, 3,6-Dimethyl-1-(4-nitrophenyl)-[1,2,4]triazolo[4,3-b][1,2,4]triazin-7(1H)-one]	27.78	20.24	32.78 ± 1.35% and 32.78 ± 1.35^a %
COc1ccc(-c2nn(-c3ccccc3)c3nc(=O)c(C)nn23)cc1 [Compound 7g, 3-(4-Methoxyphenyl)-6-methyl-1-phenyl-[1,2,4]triazolo[4,3-b][1,2,4]triazin-7(1H)-one]	17.74	13.03	25.57 ± 0.94% and 25.57 ± 0.94^b %
COc1cccc2c1C(=O)c1c(O)c3c(c(O)c1C2=O)C[C@@](O)(C(=O)CO)C[C@@H]3O[C@H]1C[C@H](N)[C@H](O)[C@H](C)O1 [Dox, Doxorubicin, reference compound]	19.69	15.84	
